As a reminder, the pIC50 is −log10 of the IC50, conventionally taken in molar units. Read a high pIC50 as a low IC50.

pIC50: −log10 of the molar value. Some results are limits rather than exact numbers.

This assay deals with α4β1 integrin (Homo sapiens, UniProt P05556+P13612). The assay is described as follows: a4b1 IC50 (inhibition of α4β1 integrin; no method described). It is filed as binding.
Chain of α4β1 integrin (P13612 34-1032): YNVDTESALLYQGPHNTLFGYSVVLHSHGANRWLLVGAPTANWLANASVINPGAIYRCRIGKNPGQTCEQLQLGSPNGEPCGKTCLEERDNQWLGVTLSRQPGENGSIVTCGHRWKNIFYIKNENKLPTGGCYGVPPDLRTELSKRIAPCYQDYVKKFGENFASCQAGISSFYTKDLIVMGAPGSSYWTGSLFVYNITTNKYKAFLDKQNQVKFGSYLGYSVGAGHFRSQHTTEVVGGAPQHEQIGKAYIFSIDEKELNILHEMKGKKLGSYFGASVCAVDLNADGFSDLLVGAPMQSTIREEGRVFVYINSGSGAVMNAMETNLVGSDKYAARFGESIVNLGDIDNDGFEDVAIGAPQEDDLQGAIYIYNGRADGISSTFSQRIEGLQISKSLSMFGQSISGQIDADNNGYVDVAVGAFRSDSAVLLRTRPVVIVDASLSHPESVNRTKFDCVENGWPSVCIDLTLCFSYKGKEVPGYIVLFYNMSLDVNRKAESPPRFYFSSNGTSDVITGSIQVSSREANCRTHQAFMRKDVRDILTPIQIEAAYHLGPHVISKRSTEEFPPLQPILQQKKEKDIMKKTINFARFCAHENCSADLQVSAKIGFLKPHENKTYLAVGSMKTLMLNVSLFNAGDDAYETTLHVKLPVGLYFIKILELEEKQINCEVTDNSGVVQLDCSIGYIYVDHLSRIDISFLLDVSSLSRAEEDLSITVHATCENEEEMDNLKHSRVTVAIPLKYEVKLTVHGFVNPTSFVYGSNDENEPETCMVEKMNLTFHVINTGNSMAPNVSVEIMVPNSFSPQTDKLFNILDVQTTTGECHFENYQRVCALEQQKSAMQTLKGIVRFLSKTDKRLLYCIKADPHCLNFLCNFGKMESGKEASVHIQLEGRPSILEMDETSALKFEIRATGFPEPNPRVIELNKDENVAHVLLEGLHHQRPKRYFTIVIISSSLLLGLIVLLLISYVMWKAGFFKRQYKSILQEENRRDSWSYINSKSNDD
Chain of α4β1 integrin (P05556 21-798): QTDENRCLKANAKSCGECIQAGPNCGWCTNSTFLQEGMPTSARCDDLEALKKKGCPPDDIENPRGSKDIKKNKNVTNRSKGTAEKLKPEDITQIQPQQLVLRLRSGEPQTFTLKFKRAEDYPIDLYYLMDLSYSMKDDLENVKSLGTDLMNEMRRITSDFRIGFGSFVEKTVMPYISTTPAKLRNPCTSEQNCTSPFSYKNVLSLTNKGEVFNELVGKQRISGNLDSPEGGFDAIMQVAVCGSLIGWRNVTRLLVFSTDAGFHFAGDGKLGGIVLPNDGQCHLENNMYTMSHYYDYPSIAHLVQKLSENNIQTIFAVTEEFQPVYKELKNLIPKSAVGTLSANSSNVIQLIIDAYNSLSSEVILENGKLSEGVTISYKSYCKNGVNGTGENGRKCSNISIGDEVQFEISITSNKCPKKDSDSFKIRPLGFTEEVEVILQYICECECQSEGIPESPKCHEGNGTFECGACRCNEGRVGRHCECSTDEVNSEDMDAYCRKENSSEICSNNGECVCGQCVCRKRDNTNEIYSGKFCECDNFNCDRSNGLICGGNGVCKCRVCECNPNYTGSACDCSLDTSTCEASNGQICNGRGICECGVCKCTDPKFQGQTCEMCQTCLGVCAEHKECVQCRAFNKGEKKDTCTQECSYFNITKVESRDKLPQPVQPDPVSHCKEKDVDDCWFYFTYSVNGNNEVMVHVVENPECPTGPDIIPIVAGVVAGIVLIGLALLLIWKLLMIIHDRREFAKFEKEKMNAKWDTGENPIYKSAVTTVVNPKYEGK
Take `Cc1cn(C)c(=O)c(NC(=O)NC(CC(=O)O)c2cccc(Oc3ccccc3)c2)c1O` (centres unmarked) [Compound 1-21, sodium 3-(3-(1,5-dimethyl-4-oxido-2-oxo-1,2-dihydropyridin-3-yl)ureido)-3-(3-phenoxyphenyl)propanoate]: the pIC50 is over 6.70.
Take `Cc1cn(C)c(=O)c(NC(=O)N[C@@H](CC(=O)O)c2cccc(Oc3ccccc3)c2)c1O` [Compound 1-22, sodium (S)-3-(3-(1,5-dimethyl-4-oxido-2-oxo-1,2-dihydropyridin-3-yl)ureido)-3-(3-phenoxyphenyl)propanoate]: the pIC50 is over 6.70.
Consider `Cc1cn(C)c(=O)c(NC(=O)N[C@@H](CC(=O)O)c2cccc(Cc3ccccc3)c2)c1O` [Compound 1-23, sodium (S)-3-(3-benzylphenyl)-3-(3-(1,5-dimethyl-4-oxido-2-oxo-1,2-dihydropyridin-3-yl)ureido)propanoate], for which the negative logarithm of the IC50 (pIC50) was over 6.70.
To `Cc1cn(C)c(=O)c(NC(=O)NC(CC(=O)O)c2cccc(Cc3ccccc3Cl)c2)c1O` (centres unmarked) [Compound 1-24, sodium 3-(3-(2-chlorobenzyl)phenyl)-3-(3-(1,5-dimethyl-4-oxido-2-oxo-1,2-dihydropyridin-3-yl)ureido)propanoate] belongs over 6.70; to `Cc1cn(C)c(=O)c(NC(=O)NC(CC(=O)O)c2cccc(Cc3cccc(Cl)c3)c2)c1O` (centres unmarked) [Compound 1-25, sodium 3-(3-(3-chlorobenzyl)phenyl)-3-(3-(1,5-dimethyl-4-oxido-2-oxo-1,2-dihydropyridin-3-yl)ureido)propanoate], over 6.70.
In the case of `Cc1cn(C)c(=O)c(NC(=O)NC(CC(=O)O)c2cccc(Cc3ccc(Cl)cc3)c2)c1O` (centres unmarked) [Compound 1-26, sodium 3-(3-(4-chlorobenzyl)phenyl)-3-(3-(1,5-dimethyl-4-oxido-2-oxo-1,2-dihydropyridin-3-yl)ureido)propanoate], the negative logarithm of the IC50 (pIC50) is under 6.70.
`Cc1cn(C)c(=O)c(NC(=O)N[C@@H](CC(=O)O)c2ccc(Cc3ccccc3Cl)cc2)c1O` [Compound 1-27, sodium (S)-3-(4-(2-chlorobenzyl)phenyl)-3-(3-(4-hydroxy-1,5-dimethyl-2-oxo-1,2-dihydropyridin-3-yl)ureido)propanoate]: the pIC50 was under 6.70.
To `Cc1ccccc1Cc1cccc([C@H](CC(=O)O)NC(=O)Nc2c(O)c(C)cn(C)c2=O)c1` [Compound 1-28, sodium (S)-3-(3-(1,5-dimethyl-4-oxido-2-oxo-1,2-dihydropyridin-3-yl)ureido)-3-(3-(2-methylbenzyl)phenyl)propanoate] belongs over 7.70; to `Cc1cccc(Cc2cccc([C@H](CC(=O)O)NC(=O)Nc3c(O)c(C)cn(C)c3=O)c2)c1` [Compound 1-29, sodium (S)-3-(3-(1,5-dimethyl-4-oxido-2-oxo-1,2-dihydropyridin-3-yl)ureido)-3-(3-(3-methylbenzyl)phenyl)propanoate], over 6.70.
The same measure for `Cc1ccc(Cc2cccc([C@H](CC(=O)O)NC(=O)Nc3c(O)c(C)cn(C)c3=O)c2)cc1` [Compound 1-30, sodium (S)-3-(3-(1,5-dimethyl-4-oxido-2-oxo-1,2-dihydropyridin-3-yl)ureido)-3-(3-(4-methylbenzyl)phenyl)propanoate]: over 6.70; for `COc1ccccc1Oc1ccc([C@H](CC(=O)O)NC(=O)Nc2c(O)cc(C)n(C)c2=O)cc1` [Compound 2-11, sodium (S)-3-(3-(1,6-dimethyl-4-oxido-2-oxo-1,2-dihydropyridin-3-yl)ureido)-3-(4-(2-methoxyphenoxy)phenyl)propanoate]: over 6.70; for `COc1cccc(Oc2ccc([C@H](CC(=O)O)NC(=O)Nc3c(O)cc(C)n(C)c3=O)cc2)c1` [Compound 2-12, sodium (S)-3-(3-(1,6-dimethyl-4-oxido-2-oxo-1,2-dihydropyridin-3-yl)ureido)-3-(4-(3-methoxyphenoxy)phenyl)propanoate]: over 6.70.
Regarding `Cc1ccccc1Cc1cccc([C@H](CC(=O)O)NC(=O)Nc2c(O)cc(C)n(C)c2=O)c1` [Compound 2-14, sodium (S)-3-(3-(1,6-dimethyl-4-oxido-2-oxo-1,2-dihydropyridin-3-yl)ureido)-3-(3-(2-methylbenzyl)phenyl)propanoate], the pIC50 is over 7.70.
To `Cc1ccccc1Cc1ccc([C@H](CC(=O)O)NC(=O)Nc2c(O)cc(C)n(C)c2=O)s1` [Compound 2-15, sodium (S)-3-(3-(1,6-dimethyl-4-oxido-2-oxo-1,2-dihydropyridin-3-yl)ureido)-3-(5-(2-methylbenzyl)thiophen-2-yl)propanoate] belongs at least 7.70; to `Cc1ccccc1C(F)(F)c1cccc([C@@H](CC(=O)O)NC(=O)Nc2c(O)ccn(C)c2=O)c1` [Compound 3-66, sodium (R)-3-(3-(difluoro(o-tolyl)methyl)phenyl)-3-(3-(1-methyl-4-oxido-2-oxo-1,2-dihydropyridin-3-yl)ureido)propanoate], under 6.70.
`Cc1ccccc1Oc1cccc([C@H](CC(=O)O)NC(=O)Nc2c(O)ccn(C)c2=O)c1` [Compound 3-67, sodium (S)-3-(3-(1-methyl-4-oxido-2-oxo-1,2-dihydropyridin-3-yl)ureido)-3-(3-(o-tolyloxy)phenyl)propanoate]: the pIC50 is over 7.70.
In turn, `COc1ccccc1Oc1cccc([C@H](CC(=O)O)NC(=O)Nc2c(O)ccn(C)c2=O)c1` [Compound 3-68, sodium (S)-3-(3-(2-methoxyphenoxy)phenyl)-3-(3-(1-methyl-4-oxido-2-oxo-1,2-dihydropyridin-3-yl)ureido)propanoate] had a pIC50 of over 7.70.
The same measure for `Cn1ccc(O)c(NC(=O)N[C@@H](CC(=O)O)c2cccc(Oc3ccccc3Cl)c2)c1=O` [Compound 3-69, sodium (S)-3-(3-(2-chlorophenoxy)phenyl)-3-(3-(1-methyl-4-oxido-2-oxo-1,2-dihydropyridin-3-yl)ureido)propanoate]: over 7.70; for `Cc1ccc(F)cc1Cc1cccc([C@H](CC(=O)O)NC(=O)Nc2c(O)ccn(C)c2=O)c1` [Compound 3-70, sodium (S)-3-(3-(5-fluoro-2-methylbenzyl)phenyl)-3-(3-(1-methyl-4-oxido-2-oxo-1,2-dihydropyridin-3-yl)ureido)propanoate]: over 7.70; for `COc1ccccc1Oc1ccc([C@H](CC(=O)O)NC(=O)Nc2c(O)ccn(C)c2=O)cc1` [Compound 3-72, sodium (S)-3-(4-(2-methoxyphenoxy)phenyl)-3-(3-(1-methyl-4-oxido-2-oxo-1,2-dihydropyridin-3-yl)ureido)propanoate]: over 6.70.
`COc1cccc(Oc2ccc([C@H](CC(=O)O)NC(=O)Nc3c(O)ccn(C)c3=O)cc2)c1` [Compound 3-73, sodium (S)-3-(4-(3-methoxyphenoxy)phenyl)-3-(3-(1-methyl-4-oxido-2-oxo-1,2-dihydropyridin-3-yl)ureido)propanoate] showed a pIC50 of over 6.70.
The same measure for `Cc1ccccc1Oc1ccc([C@H](CC(=O)O)NC(=O)Nc2c(O)ccn(C)c2=O)cc1` [Compound 3-74, sodium (S)-3-(3-(1-methyl-4-oxido-2-oxo-1,2-dihydropyridin-3-yl)ureido)-3-(4-(o-tolyloxy)phenyl)propanoate]: over 7.70; for `Cc1ccc(Oc2ccc([C@H](CC(=O)O)NC(=O)Nc3c(O)ccn(C)c3=O)cc2)cc1` [Compound 3-75, sodium (S)-3-(3-(1-methyl-4-oxido-2-oxo-1,2-dihydropyridin-3-yl)ureido)-3-(4-(p-tolyloxy)phenyl)propanoate]: over 6.70; for `Cn1ccc(O)c(NC(=O)N[C@@H](CC(=O)O)c2ccc(Cc3ccccc3)cc2)c1=O` [Compound 3-76, sodium (S)-3-(4-benzylphenyl)-3-(3-(1-methyl-4-oxido-2-oxo-1,2-dihydropyridin-3-yl)ureido)propanoate]: over 7.70.
The same measure for `Cc1ccccc1Cc1ccc([C@H](CC(=O)O)NC(=O)Nc2c(O)ccn(C)c2=O)cc1` [Compound 3-77, sodium (S)-3-(3-(1-methyl-4-oxido-2-oxo-1,2-dihydropyridin-3-yl)ureido)-3-(4-(2-methylbenzyl)phenyl)propanoate]: over 6.70; for `Cc1cccc(Cc2ccc([C@H](CC(=O)O)NC(=O)Nc3c(O)ccn(C)c3=O)cc2)c1` [Compound 3-78, sodium (S)-3-(3-(1-methyl-4-oxido-2-oxo-1,2-dihydropyridin-3-yl)ureido)-3-(4-(3-methylbenzyl)phenyl)propanoate]: under 6.70.
The same measure for `Cc1ccc(Cc2ccc([C@H](CC(=O)O)NC(=O)Nc3c(O)ccn(C)c3=O)cc2)cc1` [Compound 3-79, sodium (S)-3-(3-(1-methyl-4-oxido-2-oxo-1,2-dihydropyridin-3-yl)ureido)-3-(4-(4-methylbenzyl)phenyl)propanoate]: under 6.70.
`CCc1ccccc1Cc1cccc([C@H](CC(=O)O)NC(=O)Nc2c(O)ccn(C)c2=O)c1` [Compound 3-80, sodium (S)-3-(3-(2-ethylbenzyl)phenyl)-3-(3-(1-methyl-4-oxido-2-oxo-1,2-dihydro-pyridin-3-yl)ureido)propanoate] gave a negative-log IC50 (pIC50) of over 7.70.
Consider `Cc1ccccc1Cc1cccc([C@H](CC(=O)O)NC(=O)Nc2c(O)ccn(C)c2=O)c1` [Compound 3-81, sodium (S)-3-(3-(1-methyl-4-oxido-2-oxo-1,2-dihydropyridin-3-yl)ureido)-3-(3-(2-methylbenzyl)phenyl)propanoate], for which the pIC50 is over 7.70.
As to `Cc1ccc(Cc2cccc([C@H](CC(=O)O)NC(=O)Nc3c(O)ccn(C)c3=O)c2)cc1` [Compound 3-82, sodium (S)-3-(3-(1-methyl-4-oxido-2-oxo-1,2-dihydropyridin-3-yl)ureido)-3-(3-(4-methylbenzyl)phenyl)propanoate], the pIC50 is over 7.70.
To `Cc1cccc(Cc2cccc([C@H](CC(=O)O)NC(=O)Nc3c(O)ccn(C)c3=O)c2)c1` [Compound 3-83, sodium (S)-3-(3-(1-methyl-4-oxido-2-oxo-1,2-dihydropyridin-3-yl)ureido)-3-(3-(3-methylbenzyl)phenyl)propanoate] belongs over 6.70.
In turn, `Cc1cccc(Oc2cccc([C@H](CC(=O)O)NC(=O)Nc3c(O)ccn(C)c3=O)c2)c1` [Compound 3-84, sodium (S)-3-(3-(1-methyl-4-oxido-2-oxo-1,2-dihydropyridin-3-yl)ureido)-3-(3-(m-tolyloxy)phenyl)propanoate] gave a pIC50 of over 7.70.

The record behind these values is US10246451B2, “Propionic acid derivatives and methods of use thereof” (Aviara Pharmaceuticals, Inc., priority 2017, dated 2019).
